# Results from paper PMC7872314, “Modeling Bioavailable Concentrations in Zebrafish Cell Lines and Embryos Increases the Correlation of Toxicity Potencies across Test Systems” (Environmental Science & Technology, 2020).
# Like-named read-outs stand apart in the source and are kept apart here.
# What was measured:
# [1] = test system: ZF4 (fibroblasts) cell line; test: MTS assay (MTS/BCA multiplex), NAD(P)H metabolism; format: cell-based, zebrafish (Danio rerio); conditions: Danio rerio, Fibroblast
# [2] = test system: ZF4 (fibroblasts) cell line; test: BCA assay (MTS/BCA multiplex), protein amount; format: cell-based, zebrafish (Danio rerio); conditions: Danio rerio, Fibroblast
# ZF4 and ZFL cell lines = test: Cytotoxicity assays, all endpoints, both cell lines (mean/range); format: cell-based, zebrafish (Danio rerio); conditions: 48 h
# [3] = ref Comptox, PubChem or DrugBank; cited from earlier work
# [4] = test system: ZF4 (fibroblasts) cell line; test: Neutral red, fluorescence (NRf), AB/CFDA/NR multiplex, lysosome stability; format: cell-based, zebrafish (Danio rerio); conditions: Danio rerio, Fibroblast
# [5] = test system: ZF4 (fibroblasts) cell line; test: CFDA endpoint of AB/CFDA/NR multiplex, membrane stability; format: cell-based, zebrafish (Danio rerio); conditions: Danio rerio, Fibroblast
# [6] = test system: zebrafish cell lines vs zebrafish embryo; test: Potency ratios IC50;x/EC50;x (cytotoxicity assays vs mFET); design: species or system zebrafish (Danio rerio)
# [7] = test system: ZFL (hepatocytes) cell line; test: cells; format: cell-based, zebrafish (Danio rerio); conditions: Danio rerio, Hepatocyte
# [8] = test system: ZFL (hepatocytes) cell line; test: cells; format: cell-based, zebrafish (Danio rerio); conditions: Danio rerio, Hepatocyte; remark: listed apart in the source
# [9] = test system: ZFL (hepatocytes) cell line; test: cells; format: cell-based, zebrafish (Danio rerio); conditions: Danio rerio, Hepatocyte; remark: listed apart in the source
# [10] = test system: ZFL (hepatocytes) cell line; test: cells; format: cell-based, zebrafish (Danio rerio); conditions: Danio rerio, Hepatocyte; remark: listed apart in the source
# [11] = test system: ZFL (hepatocytes) cell line; test: cells; format: cell-based, zebrafish (Danio rerio); conditions: Danio rerio, Hepatocyte; remark: listed apart in the source
# [12] = test system: ZFL (hepatocytes) cell line; test: cells; format: cell-based, zebrafish (Danio rerio); conditions: Danio rerio, Hepatocyte; remark: listed apart in the source
# [13] = test system: ZF4 (fibroblasts) cell line; test: alamarBlue (AB) endpoint of AB/CFDA/NR multiplex, cellular respiration; format: cell-based, zebrafish (Danio rerio); conditions: Danio rerio, Fibroblast
# zebrafish embryos [14] = test: animal or person; format: in vivo, zebrafish (Danio rerio); conditions: for EC50: Danio rerio
# [15] = test system: ZF4 (fibroblasts) cell line; test: Neutral red, absorbance (NRa), AB/CFDA/NR multiplex, lysosome stability; format: cell-based, zebrafish (Danio rerio); conditions: Danio rerio, Fibroblast
# zebrafish embryos [16] = test system: zebrafish embryos; design: method as in earlier work; conditions: nominal, cited from earlier work
# [17] = test system: ZF4 (fibroblasts) cell line; test: ATP assay (ATP/LDH multiplex), ATP metabolism; format: cell-based, zebrafish (Danio rerio); conditions: Danio rerio, Fibroblast
# [18] = test system: ZFL (hepatocytes) cell line; test: cells; format: cell-based, zebrafish (Danio rerio); conditions: Danio rerio, Hepatocyte; remark: listed apart in the source
compound,measurement,setting,value
"CC1(C)C(C=C(Cl)c2ccc(Cl)cc2)C1C(=O)OC(C#N)c1ccc(F)c(Oc2ccccc2)c1 (centres unmarked) [Flumethrin, flumethrin]",IC50,"[1]; MTS - ZF4, log10 of IC50, read-out: LogIC50 (converted)",83.1 µM
same,IC50,"[1]; MTS - ZF4, read-out: IC50",83.1 µM
same,IC50,"[1]; ZF4, 48 h exposure, nominal, log10, read-out: logIC50 (log10 IC50;nom) MTS (converted)",83.2 µM
same,IC50,"[1]; ZF4, 48 h exposure, nominal, read-out: IC50;nom MTS",83.1 µM
same,IC50,"[2]; BCA - ZF4, log10 of IC50, read-out: LogIC50 (converted)",42.1 µM
same,IC50,"[2]; BCA - ZF4, read-out: IC50",42.1 µM
same,IC50,"[2]; ZF4, 48 h exposure, nominal, log10, read-out: logIC50 (log10 IC50;nom) BCA (converted)",41.7 µM
same,IC50,"[2]; ZF4, 48 h exposure, nominal, read-out: IC50;nom BCA",42.1 µM
same,IC50,"ZF4 and ZFL cell lines; Danio rerio, read-out: Mean log IC50nom, mean of all cytotoxicity endpoints (without LDH) in ZF4 and ZFL, 48 h, log10 (converted)",229 µM
same,Mean log IC50nom,"ZF4 and ZFL cell lines; mean of all cytotoxicity endpoints (without LDH) in ZF4 and ZFL, log10, listed as Flu",-3.637 M
same,Physiological charge,[3],0
same,logKoa,[3],11.7
same,logKow,[3],6.97
same,IC50,"[4]; NR-fluo - ZF4, log10 of IC50, read-out: LogIC50 (converted)",213 µM
same,IC50,"[4]; NR-fluo - ZF4, read-out: IC50",213 µM
same,IC50,"[4]; ZF4, 48 h exposure, nominal, log10, read-out: logIC50 (log10 IC50;nom) NRf (converted)",214 µM
same,IC50,"[4]; ZF4, 48 h exposure, nominal, read-out: IC50;nom NRf",213 µM
same,IC50,"[5]; CFDA - ZF4, log10 of IC50, read-out: LogIC50 (converted)",170 µM
same,IC50,"[5]; CFDA - ZF4, read-out: IC50",170 µM
same,IC50,"[5]; ZF4, 48 h exposure, nominal, log10, read-out: logIC50 (log10 IC50;nom) CFDA (converted)",170 µM
same,IC50,"[5]; ZF4, 48 h exposure, nominal, read-out: IC50;nom CFDA",170 µM
same,in vitro toxicity (IC50;free) higher than EC50;nom,[6]; ZF4 NRa endpoint vs embryo,10 fold
same,potency ratio IC50;nom/EC50;nom (median),"[6]; median over cytotoxicity endpoints, nominal, 48 h cells / 48 hpf mFET",698
same,difference in sensitivity between embryo (EC50;nom) and cells (IC50;nom),"[6]; nominal concentrations, higher potency in the mFET",two to three log-scales more sensitive in the mFET
same,"potency ratio IC50;nom/EC50;nom, BCA-ZFL endpoint","[6]; single endpoint BCA-ZFL, less sensitive in the cell-based assay","10,000 fold"
same,IC50,"[7]; AB - ZFL, log10 of IC50, read-out: LogIC50 (converted)",244 µM
same,IC50,"[7]; AB - ZFL, read-out: IC50",244 µM
same,IC50,"[7]; ZFL, 48 h exposure, nominal, log10, read-out: logIC50 (log10 IC50;nom) AB (converted)",245 µM
same,IC50,"[7]; ZFL, 48 h exposure, nominal, read-out: IC50;nom AB",244 µM
same,IC50,"[8]; BCA - ZFL, log10 of IC50, read-out: LogIC50 (converted)",6130 µM
same,IC50,"[8]; BCA - ZFL, read-out: IC50",6130 µM
same,IC50,"[8]; ZFL, 48 h exposure, nominal, log10, read-out: logIC50 (log10 IC50;nom) BCA (converted)",6170 µM
same,IC50,"[8]; ZFL, 48 h exposure, nominal, read-out: IC50;nom BCA",6130 µM
same,IC50,"[9]; NR-abs - ZFL, log10 of IC50, read-out: LogIC50 (converted)",160 µM
same,IC50,"[9]; NR-abs - ZFL, read-out: IC50",160 µM
same,IC50,"[9]; ZFL, 48 h exposure, nominal, log10, read-out: logIC50 (log10 IC50;nom) NRa (converted)",158 µM
same,IC50,"[9]; ZFL, 48 h exposure, nominal, read-out: IC50;nom NRa",160 µM
same,IC50,"[10]; CFDA - ZFL, log10 of IC50, read-out: LogIC50 (converted)",118 µM
same,IC50,"[10]; CFDA - ZFL, read-out: IC50",118 µM
same,IC50,"[10]; ZFL, 48 h exposure, nominal, log10, read-out: logIC50 (log10 IC50;nom) CFDA (converted)",117 µM
same,IC50,"[10]; ZFL, 48 h exposure, nominal, read-out: IC50;nom CFDA",118 µM
same,IC50,"[11]; MTS - ZFL, log10 of IC50, read-out: LogIC50 (converted)",414 µM
same,IC50,"[11]; MTS - ZFL, read-out: IC50",414 µM
same,IC50,"[11]; ZFL, 48 h exposure, nominal, log10, read-out: logIC50 (log10 IC50;nom) MTS (converted)",417 µM
same,IC50,"[11]; ZFL, 48 h exposure, nominal, read-out: IC50;nom MTS",414 µM
same,IC50,"[12]; ATP - ZFL, log10 of IC50, read-out: LogIC50 (converted)",441 µM
same,IC50,"[12]; ATP - ZFL, read-out: IC50",441 µM
same,IC50,"[12]; ZFL, 48 h exposure, nominal, log10, read-out: logIC50 (log10 IC50;nom) ATP (converted)",437 µM
same,IC50,"[12]; ZFL, 48 h exposure, nominal, read-out: IC50;nom ATP",441 µM
same,IC50,"[13]; AB - ZF4, log10 of IC50, read-out: LogIC50 (converted)",351 µM
same,IC50,"[13]; AB - ZF4, read-out: IC50",351 µM
same,IC50,"[13]; ZF4, 48 h exposure, nominal, log10, read-out: logIC50 (log10 IC50;nom) AB (converted)",347 µM
same,IC50,"[13]; ZF4, 48 h exposure, nominal, read-out: IC50;nom AB",351 µM
same,difference in toxicity (EC50;nom) between 48 hpf and 144 hpf,zebrafish embryos [14]; 48 hpf time point less sensitive than 144 hpf,approximately the same
same,log EC50;nom (mFET),"zebrafish embryos [14]; 48 hpf, nominal, log10, listed as Flu",-6.562 M
same,EC50,"zebrafish embryos [14]; 48 hpf, nominal, log10, read-out: log EC50;nom (mFET) (converted)",0.275 µM
same,EC50,"zebrafish embryos [14]; 48 hpf, nominal, read-out: EC50;nom (embryo)",0.14 µg/mL
same,EC50,zebrafish embryos [14]; read-out: EC50 48hpf,0.274 µM
same,EC50,zebrafish embryos [14]; read-out: EC50;nom (mFET),0.274 µM
same,IC50,"[15]; NR-abs - ZF4, log10 of IC50, read-out: LogIC50 (converted)",104 µM
same,IC50,"[15]; NR-abs - ZF4, read-out: IC50",104 µM
same,IC50,"[15]; ZF4, 48 h exposure, nominal, log10, read-out: logIC50 (log10 IC50;nom) NRa (converted)",105 µM
same,IC50,"[15]; ZF4, 48 h exposure, nominal, read-out: IC50;nom NRa",104 µM
same,IC50,"[15]; ZF4 cell line, NRa endpoint, nominal, read-out: IC50;nom",53.1 µg/mL
same,EC50,"zebrafish embryos [16]; 144 hpf, converted",0.216 µM
same,logEC50 144 hpf,zebrafish embryos [16]; log10,-6.667 M
same,IC50,"[17]; ATP - ZF4, log10 of IC50, read-out: LogIC50 (converted)",317 µM
same,IC50,"[17]; ATP - ZF4, read-out: IC50",317 µM
same,IC50,"[17]; ZF4, 48 h exposure, nominal, log10, read-out: logIC50 (log10 IC50;nom) ATP (converted)",316 µM
same,IC50,"[17]; ZF4, 48 h exposure, nominal, read-out: IC50;nom ATP",317 µM
same,IC50,"[18]; NR-fluo - ZFL, log10 of IC50, read-out: LogIC50 (converted)",159 µM
same,IC50,"[18]; NR-fluo - ZFL, read-out: IC50",159 µM
same,IC50,"[18]; ZFL, 48 h exposure, nominal, log10, read-out: logIC50 (log10 IC50;nom) NRf (converted)",158 µM
same,IC50,"[18]; ZFL, 48 h exposure, nominal, read-out: IC50;nom NRf",159 µM
